Reference: ChEMBL document CHEMBL5131548, “Novel Bis-phosphoglycerate Mutase Modulators for Treating Sickle Cell Disease” (ACS Med Chem Lett, 2022)

Biological target: T1, Bisphosphoglycerate mutase (Homo sapiens, UniProt P07738)
T1 sequence (P07738 whole entry): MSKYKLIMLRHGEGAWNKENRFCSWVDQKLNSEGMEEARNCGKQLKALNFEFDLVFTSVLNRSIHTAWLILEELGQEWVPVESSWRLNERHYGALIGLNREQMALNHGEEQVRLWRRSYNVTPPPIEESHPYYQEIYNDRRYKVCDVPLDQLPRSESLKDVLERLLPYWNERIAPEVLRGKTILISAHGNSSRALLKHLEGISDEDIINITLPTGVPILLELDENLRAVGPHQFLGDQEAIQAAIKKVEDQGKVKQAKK
Experiment: Inhibition of human Bis-phosphoglycerate mutase using 3-PG, GAP and NAD as substrate preincubated for 30 mins followed by substrate addition and measured after 100 mins in presence of GAPDH by resazurin reagent based fluorescence analysis

`Cc1nc(COc2ncccn2)sc1-c1cccc(-c2ccc(-c3noc(=O)[nH]3)cc2)n1` was tested. Which IC50 did it give?
Its IC50 is 138 nM.

For `Cc1nc(COCC(C)(C)O)sc1-c1cccc(-c2cc(F)c3nn[nH]c3c2F)n1`, which IC50 is on record?
Its IC50 is 19 nM.

With `Cc1nc(COc2ncccn2)sc1-c1csc(-c2cc(F)c(O)c(F)c2F)n1` as the molecule, how does the IC50 read?
Its IC50 is 159 nM.

With `Cc1cnc(OCc2nc(C)c(-c3cccc(-c4cc(F)c5nn[nH]c5c4F)n3)s2)nc1` as the molecule, how does the IC50 read?
The IC50 was 21 nM.

How did the IC50 turn out when `Cc1nc(COc2cccnn2)sc1-c1csc(-c2cc(F)c3[nH]nnc3c2)n1` was run?
Its IC50 is 92 nM.
